From paper PMC7222207, “Characterization of a CholesteroNitrone (ISQ-201), a Novel Drug Candidate for the Treatment of Ischemic Stroke” (Antioxidants, 2020)

Experiments:
[1] = system: transient middle cerebral artery occlusion; assay: Transient focal cerebral ischemia (tMCAO), infarct size by TTC stain; format: in vivo, male C57BL/6 mice; settings: mice, 48 h after tMCAO
[2] = system: transient forebrain ischemia, hippocampal CA1 and cortical neurons; assay: Global cerebral ischemia (4VO), neuronal apoptosis by TUNEL assay; format: in vivo, male Wistar rats; set-up: maximum neuroprotection (Emax), TUNEL assay: dose or concentration left out as unconfirmed; settings: for maximum neuroprotection (Emax), TUNEL assay: iv at reperfusion onset
Method: Transient forebrain ischemia was induced in adult male Wistar rats (10–12 weeks, Charles River) by the standard four-vessel occlusion model (4VO) described previously. Briefly, both vertebral arteries were irreversibly occluded by electrocoagulation under anesthesia, with a mixture of atropine, ketamine, and diazepam (0.25, 62.5, and 5 mg/kg, respectively) delivered through intraperitoneal injection. After 24 h, ischemia was induced by carotid occlusion with atraumatic clips, for 15 min, and then the clips were removed from the carotid arteries to allow reperfusion. Body temperature was maintained at 37 °C during the surgical procedure. The animals were studied after 5 days of reperfusion (R5d) after which they were sacrificed. Sham control animals were prepared in the same way, without carotid occlusion. We performed a power analysis (http://www.biomath.info/power/ttest.htm) to determine the sample size. Significance level and statistical power were set at 0.05 and 0.8 (80%), respectively, which afforded a sample size of […] subjects per group. The treatments were administered with concealed allocation, and in randomized order, according to a computer-generated randomization program. Ischemic animals were treated with a vehicle solution (saline/ethanol, 90:10 vol/vol) or nitrone ISQ-201, dissolved in a vehicle solution through a single intravenous tail injection, when the carotid arteries were unclamped for reperfusion. In therapeutic window experiments, the animals were treated once at the reperfusion onset or at the set reperfusion time points, after ischemia. For the administration, at 6 h and 48 h of reperfusion after ischemia, the animals were anesthetized with isoflurane for 2–3 min and 5 min, respectively, prior to the treatment administration. An independent researcher prepared the treatments for each animal, according to the randomization schedule. Data of each experimental group were normalized to each vehicle control group. All procedures associated with animal experiments were approved by the Animal Care Ethics Committee of the Hospital Universitario Ramón y Cajal (Madrid, Spain, code no. 06/2015) and were performed according to the ARRIVE guidelines.
After 5 days of reperfusion (R5d), the animals were euthanized by transcardiac perfusion, under deep anesthesia. A washout step with 200 mL of saline via the left ventricle was followed by a fixation with 4% (w/v) paraformaldehyde solution in PBS. Brains were then removed and post-fixed in the same solution, overnight at 4 °C, sequentially washed with 10%, 20%, and 30% (w/v) sucrose in PBS, and embedded in Tissue-Tek O.C.T. (Sakura Finetek), before freezing at −80 °C. Brain coronal sections containing the hippocampus were obtained by cryostat sectioning at the level of interaural line +5.7 ± 0.2 mm on real capillary gap microscope slides (Dako).
Apoptotic neurons within the brain sections were detected by using the Terminal deoxynucleotidyl transferase-mediated dUTP Nick-End Labeling (TUNEL) assay (Promega). For this test, 5-µm-thick coronal cryostat brain sections containing the dorsal hippocampal formation were obtained, as described above, and post-fixed with 4% formaldehyde in PBS for 5 min, at room temperature. After washing in PBS for three times, the sections were permeabilized with 0.1 M sodium citrate, pH 6.0, for 1 min at 95 °C, then quickly cooled in ice and washed in PBS for 5 min at room temperature. […]

[3] = system: transient middle cerebral artery occlusion; assay: Transient focal cerebral ischemia (tMCAO), grip strength test; format: in vivo, male C57BL/6 mice; settings: mice, 0.05 mg/kg or 0.1 mg/kg ip at onset of reperfusion, 24 and 48 h after treatment
Method: Transient occlusion of the distal branch of the middle cerebral artery (tMCAO) was induced in male C57BL/6 mice (9–11 weeks old, Charles River), as described previously. Mice were anesthetized with 4% isoflurane for induction and 1.5–2% isoflurane for maintenance (in 79% N2/21% O2). After drilling a small hole on the temporal bone at the level of the distal portion of the middle cerebral artery (MCA), the artery was compressed for 60 min, with a 30-G needle by using a micromanipulator. Body temperature was maintained between 36.5–37.5 °C and cerebral blood flow was monitored using laser-Doppler flowmetry to confirm MCA occlusion. Buprenorphine (0.05–0.1 mg/kg) was administered subcutaneously immediately before the procedure. A total of 33 mice were subjected to tMCAO, according to the study design. A power analysis was performed to determine the sample size (significance level set at 0.05, and the power set at 0.8 (80%)), which identified the need for 8 mice to be included in each experimental group. […]
Neurobehavioral studies were performed to evaluate ischemic outcomes and monitor motor function after focal ischemia. […] A total of six trials were conducted for each test and the strength value (expressed in grams) was calculated as the mean of all six trials.

Q: How did the “infarct area in the brain vs vehicle” value ([1]; 0.05 mg/kg ip at onset of reperfusion) turn out when CC(C)[C@H]1CC[C@H]2[C@@H]3CCC4=C/C(=[N+](\C)[O-])CC[C@]4(C)[C@H]3CC[C@]12C [ISQ-201] was run?
A: The value was “did not change”.

Q: And the “reduction in lesion size with respect to vehicle-treated group” value ([1]; 0.1 mg/kg ip at onset of reperfusion)?
A: The value was 21%.

Q: What about the “cell apoptosis vs vehicle, therapeutic window” value ([2]; 0.05 mg/kg iv given at 48 h postreperfusion, evaluated at 5 days) of the same compound?
A: Its value is “did not show significant differences”.

Q: What about the “apoptosis-positive cells vs vehicle, therapeutic window” value ([2]; 0.05 mg/kg iv given up to and including 6 h postreperfusion, hippocampal and cortical regions, evaluated at 5 days) of the same compound?
A: Its value is “significantly reduced”.

Q: And the “apoptotic cells vs vehicle group” value ([2]; 0.05 and 0.1 mg/kg iv at reperfusion onset, CA1 and cortical regions, 5 days of reperfusion)?
A: The value was “significant reduction”.

Q: What about the “maximum neuroprotection (Emax), TUNEL assay” value ([2]; cortex, most potent concentration, 5 days of reperfusion) of the same compound?
A: The value was 81%.

Q: And the “maximum neuroprotection (Emax), TUNEL assay” value ([2]; hippocampal CA1, most potent concentration, 5 days of reperfusion)?
A: Its value is 35%.

Q: And the “motor deficit (grip strength) vs vehicle” value [3]?
A: Its value is “significant decrease”.
